Reference: patent US20230210757A1, “IMPROVEMENTS IN OR RELATING TO ORGANIC COMPOUNDS” (Givaudan SA, priority 2020, published 2023)

Tests used:
[1] = system: hyperpigmentation spots on face; assay: Clinical test, hyperpigmented spots on face of African volunteers, Mexameter analysis; assay type: in vivo, human
Procedure: The measurement is based on the absorption principle. The MEXAMETER MX 18 probe emits radiation of three defined wavelengths. A receiver measures the reflection of the light reflected by the skin. The position of the transmitter and receiver ensures that only diffuse light is measured. With a defined amount of emitted light the amount of light absorbed by the skin can be calculated. Melanin is measured by two wavelengths. The wavelengths were chosen according to the different absorption peaks of the melanin pigments. For the measurement of erythema (redness of skin), two different wavelengths are used to measure the absorption capacity of the epidermis. One of them corresponds to the absorption spectrum of haemoglobin. The other wavelength was chosen in order to have other pigments influencing the colour of the skin.
The study was a double-blind, randomized and placebo controlled study. The assessment was based on an inter-subject comparison between the results obtained with cream HEX at 3% (active product), cream Phenylethyl resorcinol at 0.3% and the cream placebo. The measurements were taken in controlled-atmosphere at a temperature of 20° C. and a humidity of 40%. This study was performed on 70 volunteers (aged from 19 to 57 years, having hyperpigmentation spots on their faces.
The study was carried out on 3 groups. A cream formula was applied twice daily on full face. Evaluation was carried out before treatment and after 28 and 56 days. Groups 1 and 2, with 25 volunteers each, have applied placebo and HEX at 3%, respectively, and group 3 with 20 volunteers has applied Phenylethyl Resorcinol at 0.3%.

[2] = system: pigmented ageing spots on face; assay: Clinical test, pigmented spots on face of Asian volunteers, VISIA ageing spot analysis; assay type: in vivo, human; settings: cream 0.3% twice daily
Procedure: (§1) The study was a double-blind, randomized and placebo controlled study. The assessment was based on an inter-subject comparison between the results obtained with cream HEX at 3% (active product), cream Phenylethyl resorcinol at 0.3% and the cream placebo. The measurements were taken in controlled-atmosphere at a temperature of 21±1° C. and a humidity of 50±10%. This study was performed on 72 volunteers (healthy Asian woman aged from 45 to 85 years), having pigmented ageing spots on their faces.
The study was carried out on 2 groups of 36 volunteers each (72 volunteer in total). A cream formula was applied twice daily on face. Evaluation was carried out before treatment and after 28 and 56 days. Group 1 has applied placebo on one side of the face and HEX at 3% on the other side of the face Group 2 has tested HEX at 3% on one side of the face versus Phenylethyl Resorcinol at 0.3% on the other side of the face. […]
Under standard light, visible spots can be evaluated, in particular by visualisation of brown or red skin lesions including freckles, acne scars, hyper-pigmentation and vascular lesions. With cross polarized light in combination with Canfield's RBX® Technology brown spots can be evaluated, in particular by analysis of subsurface melanin conditions. […] The results are given in number of lesions, which is a count of lesions detected by the device, regardless of their size or intensity.

[3] = system: pigmented ageing spots on hands; assay: Clinical test, pigmented spots on hands of Caucasian volunteers, Mexameter analysis; assay type: in vivo, human; settings: cream 0.3% twice daily
Procedure: The study was a double-blind, randomized and placebo controlled study. The assessment was based on an intra-subject comparison between the results obtained with cream HEX at 3% (active product), cream Phenylethyl resorcinol at 0.3% and the cream placebo. The measurements were taken in controlled-atmosphere at a temperature of 21±1° C. and a humidity of 50*10%. This study was performed on 39 volunteers (healthy Caucasian woman aged from 50 to 75 years, mean age: 61.7±5.6 years) having pigmented ageing spots on their hands.
The study was carried out on 2 groups of around 20 volunteers each (39 volunteer in total aged from […]). A cream formula was applied twice daily on hands. Evaluation was carried out before treatment and after 28 and 56 days. Group 1 has applied placebo on one hand and HEX at 3% on the other hand, and group 2 has tested HEX at 3% on one hand versus Phenylethyl Resorcinol at 0.3% on the other hand.
The measurement is based on the absorption principle. The MEXAMETER MX 18 probe emits radiation of three defined wavelengths. A receiver measures the reflection of the light reflected by the skin. The position of the transmitter and receiver ensures that only diffuse light is measured. With a defined amount of emitted light the amount of light absorbed by the skin can be calculated. Melanin is measured by two wavelengths. […]

[4] = system: skin explants (Caucasian, Asian, African); assay: Ex vivo whitening efficacy on skin explants (Fontana Masson staining, expert scoring of basal cells); assay type: cell-based, human; settings: topical daily 14 days, vs untreated, extract 3%, Phenylethyl resorcinol 0.5%, hydroquinone 2%
Procedure: Skin fragments from 3 Asian, 3 African and 3 Caucasian subjects were cut into 1 cm^2 pieces and washed three times using antibiotics. Subcutaneous fat and lower dermis were mechanically removed under a stereomicroscope using a surgical scalpel. Skin biopsies were placed with the epithelium uppermost at an air/liquid interface on culture inserts (filter pore size 12 μm; Costar, VWR International, Fontenay-sous-Bois, France). These inserts were set on twelve wells plate for 14 days at 37° C. in a humidified incubator with 5% CO2. Medium was added to the wells so that the surface of the medium was levelled with the filter. Organ cultures were conserved with Dulbecco's […] (Invitrogen Corporation, Paisley, UK) containing antibiotic, L-glutamine, bovine pituitary extract, growth factors and fetal calf serum (DAP, Neuf-Brisach, France). […] elongata extract 3% (unpurified extract), Phenylethyl resorcinol 0.5% and hydroquinone 2% (SIGMA H9003) as positive control were topically applied daily during 14 days on the epidermis of the skin fragments, in comparison with untreated skin. […] For testing the depigmentation product, the melanin pigment present in the melanocytes and in the contiguous keratinocytes of the basal cell layer of the epidermis from treated skin in comparison with untreated skin is evaluated. Samples were formalin-fixed at day 14 and paraffin-embedded Sections (4 μm) were then stained by Fontana Masson silver method for melanin (see example 4iii). A quantitative numeration of cells containing melanin pigments was made under an optical microscope at ×40 magnification on about 300 basal cells of the epidermis, Two types of cells were counted: • score 1: unpigmented cells or cells presenting rare melanin pigments isolated in the cytoplasm • score 3: cells presenting important melanin pigment in all over the cytoplasm Epidermal melanin content was calculated as the percentage of the epidermal cells in each scoring.

[5] = system: pigmented ageing spots on face; assay: Clinical test, face of Asian volunteers, spectrocolorimeter measurement; assay type: in vivo, human; settings: HEX cream 3% or Phenylethyl resorcinol cream 0.3% twice daily, after 28 and 56 days
Procedure: as §1
The study was carried out on 2 groups of 36 volunteers each (72 volunteer in total). A cream formula was applied twice daily on face. Evaluation was carried out before treatment and after 28 and 56 days. Group 1 has applied placebo on one side of the face and HEX at 3% on the other side of the face Group 2 has tested HEX at 3% on one side of the face versus Phenylethyl Resorcinol at 0.3% on the other side of the face.
Skin colorimetric measurement was done with a MINOLTA CM700-d Spectrophotometer® equipped with a 8 mm diameter head. The Spectrophotometer® converts colours perceived by human to a digital code composed of three parameters:
L*: for clarity (from dark to light),
a*: for the green-to-red spectrum,
b*: for the blue-to-yellow spectrum.
a* and b* are chrominance parameters and L* is a luminance parameter. […]

SMILES	change of melanin content relative to D0 ([1]; HEX cream 3% or Phenylethyl Resorcinol cream 0.3% twice daily, after 56 days)	change of melanin content relative to D0 ([1]; cream 0.3% twice daily, after 28 days)	change of melanin content versus placebo ([1]; cream 0.3%, after 28 days)	reduction of brown spots compared with HEX [2]	reduction of visible spots compared with HEX at 3% [2]	reduction of skin redness compared with placebo [3]	melanin reduction efficacy compared with HEX at 3% ([3]; 28 and 56 days)	change of percentage of unpigmented cells ([4]; African skin explants)	change of percentage of very pigmented cells ([4]; African skin explants)	change of percentage of unpigmented cells ([4]; Asian skin explants)	change of percentage of very pigmented cells ([4]; Asian skin explants)	change of percentage of unpigmented cells ([4]; Caucasian skin explants)	change of percentage of very pigmented cells ([4]; Caucasian skin explants)	b* parameter on face pigmented spots area [5]
CC(c1ccccc1)c1ccc(O)cc1O (centres unmarked) [Phenylethyl resorcinol, phenylethyl resorcinol]	not maintained after 56 days	−2.1%	−4.3%	slightly better than HEX	efficacy very close to those obtained with HEX at 3%	same efficacy as what we obtained with the placebo	Same melanin reduction efficacy as with HEX at 3%	+91.7%	−22.7%	+110.7%	−29.2%	+38.8%	−4.2%	significant reduction of b* parameter
Oc1ccc(O)cc1 [Hydroquinone, hydroquinone]	–	–	–	–	–	–	–	didn't show any significant results	didn't show any significant results	+54.1%	−25.8%	didn't show any significant impact	didn't show any significant impact	–
